#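 Exposure lasted 48 hours, with cells grown in 96-well plates and compounds tested at five concentrations. TGI: concentration producing complete growth inhibition.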
# What was measured:
# Assay in all cases: DTP human tumour cell line panel, 48 h
# [1] = test system: 786-0 renal
# [2] = test system: A498 renal
# [3] = test system: A549 NSCLC
# [4] = test system: ACHN renal
# [5] = test system: BT-549 breast
# [6] = test system: CAKI-1 renal
# [7] = test system: CCRF-CEM leukemia
# [8] = test system: COLO 205 colon
# [9] = test system: DU-145 prostate
# [10] = test system: EKVX NSCLC
# [11] = test system: HCC-2998 colon
# [12] = test system: HCT-116 colon
# [13] = test system: HCT-15 colon
# [14] = test system: HOP-62 NSCLC
# [15] = test system: HOP-92 NSCLC
# [16] = test system: HS 578T breast
# [17] = test system: HT29 colon
# [18] = test system: IGROV1 ovarian
# [19] = test system: K-562 leukemia
# [20] = test system: KM12 colon
# [21] = test system: LOX IMVI melanoma
# [22] = test system: M14 melanoma
# [23] = test system: MALME-3M melanoma
# [24] = test system: MCF7 breast
# [25] = test system: MDA-MB-231 breast
# [26] = test system: MDA-MB-435
# [27] = test system: MDA-N
# [28] = test system: MOLT-4 leukemia
# [29] = test system: NCI-H226 lung
# [30] = test system: NCI-H23 lung
# [31] = test system: NCI-H460 lung
# [32] = test system: NCI-H522 lung
# [33] = test system: NCI/ADR-RES ovarian
# [34] = test system: OVCAR-3 ovarian
# [35] = test system: OVCAR-4 ovarian
# [36] = test system: OVCAR-5 ovarian
# [37] = test system: OVCAR-8 ovarian
# [38] = test system: PC-3 prostate
# [39] = test system: RXF 393 renal
# [40] = test system: SF-268 CNS
# [41] = test system: SF-295 CNS
# [42] = test system: SF-539 CNS
# [43] = test system: SK-MEL-2 melanoma
# [44] = test system: SK-MEL-28 melanoma
# [45] = test system: SK-MEL-5 melanoma
# [46] = test system: SK-OV-3 ovarian
# [47] = test system: SN12C renal
# [48] = test system: SNB-19 CNS
# [49] = test system: SNB-75 CNS
# [50] = test system: SW-620 colon
# [51] = test system: TK-10 renal
# [52] = test system: U251 CNS
# [53] = test system: UACC-257 melanoma
# [54] = test system: UACC-62 melanoma
# [55] = test system: UO-31 renal
compound,measurement,setting,value
CSCCCNC(=O)c1csc(-c2csc(CCNC(=O)CNC(=O)CNC(=O)CNC(=O)OC(C)(C)C)n2)n1,TGI,[1],> 100 µM
same,TGI,[2],> 100 µM
same,TGI,[3],> 100 µM
same,TGI,[4],> 100 µM
same,TGI,[5],> 100 µM
same,TGI,[6],> 100 µM
same,TGI,[7],> 100 µM
same,TGI,[8],> 100 µM
same,TGI,[9],> 100 µM
same,TGI,[10],> 100 µM
same,TGI,[11],> 100 µM
same,TGI,[12],> 100 µM
same,TGI,[13],> 100 µM
same,TGI,[14],> 100 µM
same,TGI,[15],> 100 µM
same,TGI,[16],> 100 µM
same,TGI,[17],> 100 µM
same,TGI,[18],> 100 µM
same,TGI,[19],> 100 µM
same,TGI,[20],> 100 µM
same,TGI,[21],> 100 µM
same,TGI,[22],> 100 µM
same,TGI,[23],> 100 µM
same,TGI,[24],> 100 µM
same,TGI,[25],> 100 µM
same,TGI,[26],> 100 µM
same,TGI,[27],> 100 µM
same,TGI,[28],> 100 µM
same,TGI,[29],> 100 µM
same,TGI,[30],> 100 µM
same,TGI,[31],> 100 µM
same,TGI,[32],> 100 µM
same,TGI,[33],> 100 µM
same,TGI,[34],> 100 µM
same,TGI,[35],> 100 µM
same,TGI,[36],> 100 µM
same,TGI,[37],> 100 µM
same,TGI,[38],> 100 µM
same,TGI,[39],> 100 µM
same,TGI,[40],> 100 µM
same,TGI,[41],> 100 µM
same,TGI,[42],> 100 µM
same,TGI,[43],> 100 µM
same,TGI,[44],> 100 µM
same,TGI,[45],> 100 µM
same,TGI,[46],> 100 µM
same,TGI,[47],> 100 µM
same,TGI,[48],> 100 µM
same,TGI,[49],> 100 µM
same,TGI,[50],> 100 µM
same,TGI,[51],> 100 µM
same,TGI,[52],> 100 µM
same,TGI,[53],> 100 µM
same,TGI,[54],> 100 µM
same,TGI,[55],> 100 µM
CC[C@H]1C=CCC[C@@]2(C[C@@H]3CC[C@@H]4[C@H](C(=O)OCCCCCCCCCCCCCCCC(=O)N(CCCN)CCCCN)[C@]5(CCC[C@@H](C)O5)NC(=[N+]34)N2)O1,TGI,[3],1.42 µM
same,TGI,[6],1.59 µM
same,TGI,[12],1.41 µM
same,TGI,[13],1.4 µM
same,TGI,[14],0.106 µM
same,TGI,[15],0.197 µM
same,TGI,[17],1.32 µM
same,TGI,[18],2.28 µM
same,TGI,[20],1.2 µM
same,TGI,[22],0.0187 µM
same,TGI,[23],0.119 µM
same,TGI,[27],1.83 µM
same,TGI,[30],1.07 µM
same,TGI,[33],2.7 µM
same,TGI,[38],1.46 µM
same,TGI,[48],1.99 µM
same,TGI,[52],1.54 µM
same,TGI,[55],0.334 µM
